Entries after “also recorded” stand apart in the source; their conditions may differ.
Columns and labels:
[1] = tested on: CD34+ umbilical cord blood HSPCs; assay: UNC0642 treatment during T cell differentiation, flow cytometry; format: cell-based, human; details: continuous treatment 10, 50, 100, 500 nM; 28 days of differentiation; vs DMSO control
Description: Error bars represent the standard deviation across n=3 independent differentiations per dose of UNC0642. *=p<0.05 compared to the DMSO control using a two-tailed Wilcoxon sum-rank test.
Error bars represent standard deviation. N=3 independent differentiation replicates per dose of UNC0642.
CD34+ umbilical cord blood cells (AllCells) were thawed from liquid nitrogen storage and T cell differentiation was immediately initiated with a StemSpan T cell Generation Kit (Stem Cell Technologies, 09940), as described above. Cells were treated with UNC0642 (Cayman Chemical, 14604) over the entire duration of the differentiation and fresh compound was supplemented every 3-4 days to the media. A range of doses were tested (10 nM, 50 nM, 100 nM, and 500 nM) alongside a 0.5% DMSO vehicle control with n=3 replicate differentiations per condition. Cells were collected after 28 days of differentiation to assess NK and T cell populations by flow cytometry.

[2] = tested on: FKBP12^F36V tagged TRIM28; assay: Western-blot for TRIM28 on dTAG knockin iPS clones; format: cell-based, human; details: 500 nM, 24 hours, four iPS clones, vs DMSO
Procedure: FIG. 35A-35F examines rapid and selective degradation of endogenous TRIM28 in human iPS cells. […] An mNeon-FKBP12^F36V open reading frame DNA sequence was knocked into the TRIM28 locus (SEQ ID NO: 32) to tag the N-terminus of TRIM28 and thus create an mNeon-FKBP12^F36V-TRIM28 fusion protein. The knockin was achieved through CRISPR/Cas9-mediated HDR (gRNA, SEQ ID: 31) where the knockin cassette was delivered to cells in an rAAV6 vector. FIG. 35B examines bulk knockin efficiency was assessed with flow cytometry for mNeon five days after simultaneous CRISPR/Cas9 RNP nucleofection and rAAV6 infection of iPS cells (MOI: 50,000 viral genomes/cells). […] The wild-type, unedited locus results in an amplicon of 1,204 bp and the knockin locus generates an amplicon of 2,371 bp. (*) denotes biallelic knockin clones. FIG. 35D analyzes microscopy for DAPI and mNeon on a biallelic knockin iPS clone to visualize nuclear localization of mNeon signal, consistent with the known nuclear localization of endogenous TRIM28 proteins. FIG. 35E examines titration of degrader molecules (dTAG-13 and dTAG^V-1) on a biallelic knockin iPS clone, assayed by flow cytometry for mNeon as a quantitative proxy for TRIM28 protein expression.

[3] = tested on: CD34+ umbilical cord blood HSPCs; assay: In vitro T cell differentiation (Notch-based, stroma-free) of CRISPR/Cas9 RNP-edited HSPCs, flow cytometry; set-up: species or system human; details: six weeks of in vitro differentiation, Cas9 RNP knockout of EHMT1, n=3; for CD56+CD3− natural killer (NK) cells (fractional abundance within CD45+DAPI− population): AAVS1-targeting gRNA control: 1.2±0.45%; for CD56−CD3+ T cells (fractional abundance within CD45+DAPI− population): AAVS1-targeting gRNA control: 38.7±12.5%
Procedure: Genetic knockouts of select genes were generated in primary hematopoietic stem and progenitor cells (HSPCs) via nucleofection of CRISPR/Cas9 ribonucleoproteins (RNPs). Two independent knockouts were generated for each gene using separate gRNAs and knockouts were replicated across two different donor pools of human umbilical cord blood. First, CD34+ cord blood cells (AllCells) were thawed via dropwise addition of RPMI 1640+10% FBS. Cells were centrifuged at 200 g for 8 minutes and subsequently washed with FACS buffer (PBS+2% FBS). Cells were cultured for 48 hours prior to nucleofection at a density of 250,000 cells/mL in SFEM II™ media (StemCell Technologies) supplemented with 100 ng/mL SCF, TPO, FLT3L, and IL-6 (Peprotech) within a 5% O2, 5% CO2, 37° C. incubator. Next, the top two protospacer sequences for each desired gene were selected from the Brunello genome-wide knockout library (Broad Institute) based on the Rule Set 2 score. A control gRNA targeting the AAVS1 locus was designed in Benchling™. All gRNA sequences were synthesized by IDT as an Alt-R CRISPR/Cas9 sgRNA. RNPs were complexed by incubating 105 pmol of Cas9 protein (IDT) with 125 pmol of sgRNA in a 5 uL total volume for 10 minutes at room temperature. CD34+ cord blood HSPCs were washed with FACS buffer and 125,000 cells were resuspended in 20 μL of P3 Primary Cell Nucleofection Solution (Lonza) per nucleofection. RNPs were nucleofected into HSPCs with 3.85 uM electroporation enhancer (IDT) using a 16-reaction nucleovette on a Lonza 4D-Nucleofector (program DZ-100). Cells were cultured for 36-48 hours at 5% O2, 5% CO2 in 96-well U-bottom plates (Corning) then subsequently harvested for genomic DNA extraction and initiation of in vitro differentiation assays.
Following 36-48 hours post-nucleofection of Cas9 RNPs, 5,000 cord blood HSPCs were differentiated to T cell lineages using the StemSpan™ T cell Generation Kit (Stem Cell Technologies) per the manufacturer's instructions with n=3 replicate differentiations per gRNA. Total viable cell counts were performed on Day 14, 28 and 42 of differentiation. T cell development was assessed by flow cytometry on days 14 and 42 of differentiation to assess lymphoid progenitors (CD45, CD5 and CD7) and mature T cells (CD45, CD4, CD8, CD3, CD56, CD5 and CD7), respectively. Cells were stained with propidium iodide as a viability marker and the following antibodies for flow cytometry: CD45 APC-Cy7 (557833, BD Biosciences), CD4 PE-Cy5 (IM2636U, Beckman Coulter Immunotech), CD8-BV421 (RPA-T8, BD Horizon), CD5-BV510 (UCHT2, BD Biosciences), CD3-PE-Cy7 (UCHT1, BD Pharmigen), CD7-PE (555361, BD Pharmigen), CD56 FITC (BD Pharmigen). […]

Row | Molecule | proportion of CD56+CD3− NK cells and CD56−CD3+ T cells [1] | TRIM28 protein degradation [2] | CD56+CD3− natural killer (NK) cells (fractional abundance within CD45+DAPI− population) [3] | CD56−CD3+ T cells (fractional abundance within CD45+DAPI− population) [3]
1 | COc1cc2c(NC3CCN(C(C)C)CC3)nc(N3CCC(F)(F)CC3)nc2cc1OCCCN1CCCC1 [UNC0642] | dose-dependent acquisition of NK cells; also recorded: dose-dependent phenocopy of the EHMT1 CRISPR/Cas9 knockout | – | – | –
2 | CC[C@H](C(=O)N1CCCC[C@H]1C(=O)O[C@H](CCc1ccc(OC)c(OC)c1)c1ccccc1OCC(=O)NCCCCCCC(=O)N[C@H](C(=O)N1C[C@H](O)C[C@H]1C(=O)N[C@@H](C)c1ccc(-c2scnc2C)cc1)C(C)(C)C)c1cc(OC)c(OC)c(OC)c1 [dTAG^V-1] | – | near-complete degradation | – | –
3 | EHMT1 gRNA01: SEQ ID NO: 5, GGGCCGGTGCACAAACAGCG; Alt-R CRISPR/Cas9 sgRNA delivered as Cas9 RNP (guide GGGCCGGUGCACAAACAGCG; IDT Alt-R synthetic sgRNA, modifications not given here) | – | – | 35.4±5.7% | 13.9±1.8%
4 | EHMT1 gRNA02: SEQ ID NO: 6, TTCGGCTGCTTCCATCAACG; Alt-R CRISPR/Cas9 sgRNA delivered as Cas9 RNP (guide UUCGGCUGCUUCCAUCAACG; IDT Alt-R synthetic sgRNA, modifications not given here) | – | – | 58.7±4.9% | 6.6±0.69%

— patent publication US20250354117A1, “METHODS OF GENERATING NATURAL KILLER CELLS FROM PLURIPOTENT STEM CELLS AND COMPOSITIONS THEREOF” (THE CHILDREN'S MEDICAL CENTER CORPORATION, priority 2022, published 2025)
